Data taken from patent US20260209152A1, “Substituted Hydroxystilbene Compounds and Derivatives, Synthesis and Uses Thereof” (Kynan Duke IP, LLC, priority 2019, published 2026).
Like-named read-outs stand apart in the source and are kept apart here.

What was measured:
[1] = tested on: Cancer cells including pancreatic, bladder, kidney, colon, breast, lung, liver and osteosarcomas; assay: CellTiter Glo cell viability assay, panel of cancer cell lines; format: cell-based, human
In short: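 Cells (1.7*10^3/well) were seeded in quadruplicate and treated with 2-fold dilutions over 18 concentrations up to 5 μM, or with 1, 2, 5, 10 and 20 μM. Viability was read by CellTiter Glo luminescence on days 1, 3 and 5; half-maximal concentrations came from nonlinear regression of RLU versus log dose.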

Pancreatic HPAFII = assay: CellTiter Glo cell viability assay; format: cell-based, human; details: for IC50: Homo sapiens
Description: (§1) 1.7*10^3 cells/well were seeded in quadruplicates in 96-well plate after plating. Drugs were added at 5 μM and 2-fold dilutions over 18 concentrations (0.000038146-5 […] range) to generate a dose-response curve. Cell growth was assessed on day 1, 3 and 5 after drug treatments using the CellTiter Glo Luminescence Cell Viability Assay (Promega) according to manufacturer's protocol. Thermo Scientific Varioskan LUX Multimode Microplate instrument was used for plate reading. Data are expressed as mean luminescence (arbitrary units) ±S.D.
(§2) Cell Viability Assays were employed to determine the concentration of Compound 1 (KYN-001) and analogues where the response is reduced by half. For each treatment of cancer cells, 1, 2, 5, 10 and 20 μM solutions of compounds were applied. GraphPad Prism 7 software was used to fit dose response curves. Relative Luminescence Units were plotted against the log values of the doses used and the nonlinear regression model was used for data analysis.
(§3) The protocol for cell proliferation was optimized for Compound 8 (KYN-119) to enable a more accurate assessment of its low IC50 value. In this protocol, 18 dosages (2 fold dilutions ranging from 0.000038146 to 5 μM) were applied to cells seeded in 96-well plates, and Luminescence was measured after 1, 3 and 5 days upon treatments.

Tongue SCC-4 = assay: CellTiter Glo cell viability assay; format: cell-based, human; details: for IC50: Homo sapiens
Description: as §1, §2, §3

Pancreatic PANC-1 = assay: CellTiter Glo cell viability assay; format: cell-based, human; details: for IC50: Homo sapiens
Description: as §1, §2, §3

Lung NCI-H1563 = assay: CellTiter Glo cell viability assay; format: cell-based, human; details: for IC50: Homo sapiens
Description: as §1, §2, §3

Osteosarcomas SAOS-2 = assay: CellTiter Glo cell viability assay; format: cell-based, human; details: for IC50: Homo sapiens
Description: as §1, §2, §3

Rhabomyosarcoma TE 159.T = assay: CellTiter Glo cell viability assay; format: cell-based, human; details: for IC50: Homo sapiens
Description: as §1, §2, §3

Kidney Caki-1 = assay: CellTiter Glo cell viability assay; format: cell-based, human; details: for IC50: Homo sapiens
Description: as §1, §2, §3

Liver HepG2 = assay: CellTiter Glo cell viability assay; format: cell-based, human; details: for IC50: Homo sapiens
Description: as §1, §2, §3

Rhabomyosarcoma A-204 = assay: CellTiter Glo cell viability assay; format: cell-based; details: Homo sapiens
Description: as §1, §2, §3

Kidney 769-P = assay: CellTiter Glo cell viability assay; format: cell-based; details: Homo sapiens
Description: as §1, §2, §3

Bladder RT4 = assay: CellTiter Glo cell viability assay; format: cell-based; details: Homo sapiens
Description: as §1, §2, §3

[2] = tested on: Muscle Ewing's Sarcoma A-673/CRL-1598; assay: CellTiter Glo cell viability assay; format: cell-based; details: Homo sapiens, A673, 11 dilutions 3-0.00001 μM
Description: as §1, §2
(§4) IC50 (μM) values correspond to log(inhibitor) vs. response (four parameters) and dose-response graphs were generated using GraphPad Prism8.

[3] = tested on: Neuroblastoma SK-N-DZ/CRL-2149; assay: CellTiter Glo cell viability assay; format: cell-based; details: Homo sapiens, 11 dilutions 3-0.00001 μM
Description: as §1, §2, §4

[4] = tested on: Neuroblastoma BE(2)-C/CRL-2268; assay: CellTiter Glo cell viability assay; format: cell-based; details: Homo sapiens, 11 dilutions 3-0.00001 μM
Description: as §1, §2, §4

[5] = tested on: Neuroblastoma CHP-212/CRL-2273; assay: CellTiter Glo cell viability assay; format: cell-based; details: Homo sapiens, 11 dilutions 3-0.00001 μM
Description: as §1, §2, §4

[6] = tested on: Osteosarcoma MG-63/CRL-1427; assay: CellTiter Glo cell viability assay; format: cell-based; details: Homo sapiens, 11 dilutions 3-0.00001 μM
Description: as §1, §2, §4

[7] = tested on: Colon cancer HT-29/HTB-38; assay: CellTiter Glo cell viability assay; format: cell-based; details: Homo sapiens, 11 dilutions 3-0.00001 μM
Description: as §1, §2, §4

[8] = tested on: Colon cancer SW620/CCL-227; assay: CellTiter Glo cell viability assay; format: cell-based; details: Homo sapiens, SW-620, 11 dilutions 3-0.00001 μM
Description: as §1, §2, §4

[9] = tested on: Neuroblastoma SK-N-FI/CRL-2142; assay: CellTiter Glo cell viability assay; format: cell-based; details: Homo sapiens, 11 dilutions 3-0.00001 μM
Description: as §1, §2, §4

[10] = tested on: Liver cancer SNU-449/CRL-2234; assay: CellTiter Glo cell viability assay; format: cell-based; details: Homo sapiens, 11 dilutions 3-0.00001 μM
Description: as §1, §2, §4

[11] = HPAF-II, 72 h, 3 Days of treatment, 18 2-fold dilutions 5-0.00003 μM, read-out: Average IC50
[12] = HPAF-II/CRL-1997, 11 dilutions 3-0.00001 μM, read-out: IC50
[13] = SCC-4, 72 h, 3 Days of treatment, 18 2-fold dilutions 5-0.00003 μM, read-out: Average IC50
[14] = SCC-4/CRL-1624, 11 dilutions 3-0.00001 μM, read-out: IC50
[15] = PANC-1, 72 h, 3 Days of treatment, 18 2-fold dilutions 5-0.00003 μM, read-out: Average IC50
[16] = PANC-1/CRL-1469, 11 dilutions 3-0.00001 μM, read-out: IC50
[17] = NCI-H1563, 72 h, 3 Days of treatment, 18 2-fold dilutions 5-0.00003 μM, read-out: Average IC50
[18] = NCI-H1563/CRL-5875, 11 dilutions 3-0.00001 μM, read-out: IC50
[19] = SAOS-2, 72 h, 3 Days of treatment, 18 2-fold dilutions 5-0.00003 μM, read-out: Average IC50
[20] = Saos-2/HTB-85, 11 dilutions 3-0.00001 μM, read-out: IC50
[21] = 72 h, 3 Days of treatment, 18 2-fold dilutions 5-0.00003 μM, read-out: Average IC50
[22] = CAKI-1, 72 h, 3 Days of treatment, 18 2-fold dilutions 5-0.00003 μM, read-out: Average IC50
[23] = Caki-1/HTB-46, 11 dilutions 3-0.00001 μM, read-out: IC50
[24] = HepG2, 72 h, 3 Days of treatment, 18 2-fold dilutions 5-0.00003 μM, read-out: Average IC50
[25] = HepG2, Hep G2/HB-8065, 11 dilutions 3-0.00001 μM, read-out: IC50
[26] = A204, A-204/HTB-82, 11 dilutions 3-0.00001 μM, read-out: IC50
[27] = 769-P/CRL-1933, 11 dilutions 3-0.00001 μM, read-out: IC50
[28] = RT4/HTB-2, 11 dilutions 3-0.00001 μM, read-out: IC50
[29] = IC50 of 1 [KYN-001] vs 8 [KYN-119], 3 Days

Compound | IC50 (Pancreatic HPAFII; [11]) | IC50 (Pancreatic HPAFII; [12]) | IC50 (Tongue SCC-4; [14]) | IC50 (Pancreatic PANC-1; [16]) | IC50 (Lung NCI-H1563; [18]) | IC50 (Osteosarcomas SAOS-2; [20]) | IC50 (Kidney Caki-1; [23]) | IC50 (Liver HepG2; [25]) | IC50 (Rhabomyosarcoma A-204; [26]) | IC50 (Kidney 769-P; [27]) | IC50 (Bladder RT4; [28]) | IC50 [2] | IC50 [3] | IC50 [4] | IC50 [5] | IC50 [6] | IC50 [7] | IC50 [8] | IC50 [9] | IC50 [10] | further results
COc1cc(/C=C/c2cc(O)cc(OC)c2CC=C(C)C)ccc1O [Compound 1, (E)-3-(4-hydroxy-3-methoxystyryl)-5-methoxy-4-(3-methylbut-2-en-1-yl)phenol] | 1070 nM | 417 nM | 39.5 nM | 110 nM | 184 nM | 173 nM | 120 nM | 577 nM | 199 nM | 363 nM | 1380 nM | 471 nM | 132 nM | 67.1 nM | 28.1 nM | 44.1 nM | 1560 nM | 121 nM | 116 nM | 81.8 nM | Effect on cell viability on Day 1 ([1]; Day 1 upon treatment at dosages <1 μM): neither 1 nor 8 affect cell viability; IC50 ([1]; Homo sapiens, comparative study on 83 cancer cell lines (Table 3), read-out: IC50 values in the range, towards the cell lines listed in the text): 10 to 100 nM; IC50 (Tongue SCC-4; [13]): 100 nM; IC50 (Pancreatic PANC-1; [15]): 107 nM; IC50 (Lung NCI-H1563; [17]): 449 nM; IC50 (Osteosarcomas SAOS-2; [19]): 110 nM; IC50 (Rhabomyosarcoma TE 159.T; [21]): 147 nM; IC50 (Kidney Caki-1; [22]): 103 nM; IC50 (Liver HepG2; [24]): 212 nM
CCOc1cc(O)cc(/C=C/c2ccc(O)c(OC)c2)c1CC=C(C)C [Compound 8, (E)-3-Ethoxy-5-(4-hydroxy-3-methoxystyryl)-4-(3-methylbut-2-en-1-yl)phenol] | 403 nM | 242 nM | 23.2 nM | 31.4 nM | 54.5 nM | 79.1 nM | 27.9 nM | 296 nM | 67.8 nM | 109 nM | 968 nM | 157 nM | 50.1 nM | 25.9 nM | 9.8 nM | 18.2 nM | 939 nM | 35.5 nM | 26.6 nM | 32.5 nM | Average fold (8 [KYN-119] more potent than 1 [KYN-001]) ([1]; 83 cancer cell lines, Table 3): 10; Fold IC50 (Pancreatic HPAFII; [29]): 2.7; IC50 (Tongue SCC-4; [13]): 23.9 nM; Fold IC50 (Tongue SCC-4; [29]): 4.2; IC50 (Pancreatic PANC-1; [15]): 11.5 nM; Fold IC50 (Pancreatic PANC-1; [29]): 9.3; IC50 (Lung NCI-H1563; [17]): 19.5 nM; Fold IC50 (Lung NCI-H1563; [29]): 23; IC50 (Osteosarcomas SAOS-2; [19]): 15.4 nM; Fold IC50 (Osteosarcomas SAOS-2; [29]): 7.2; IC50 (Rhabomyosarcoma TE 159.T; [21]): 19.6 nM; Fold IC50 (Rhabomyosarcoma TE 159.T; [29]): 7.5; IC50 (Kidney Caki-1; [22]): 8.9 nM; Fold IC50 (Kidney Caki-1; [29]): 12; IC50 (Liver HepG2; [24]): 20.2 nM; Fold IC50 (Liver HepG2; [29]): 11; IC50 (Rhabomyosarcoma A-204; A204, 72 h, 3 Days of treatment, 18 2-fold dilutions 5-0.00003 μM, read-out: Average IC50): 30.7 nM; IC50 (Kidney 769-P; 769-P, 72 h, 3 Days of treatment, 18 2-fold dilutions 5-0.00003 μM, read-out: Average IC50): 33.7 nM; IC50 (Bladder RT4; [21]): 1670 nM
CCOc1cc(O)cc(/C=C/c2ccc(O)c(O)c2)c1CC=C(C)C [Compound 20, (E)-4-(3-Ethoxy-5-hydroxy-2-(3-methylbut-2-en-1-yl)styryl)benzene-1,2-diol] | – | 638 nM | 31.3 nM | 41.6 nM | 74.1 nM | 129 nM | 96.3 nM | 234 nM | 131 nM | 174 nM | 2010 nM | 312 nM | 140 nM | 54.8 nM | 26.1 nM | 31.3 nM | 1990 nM | 103 nM | 48.5 nM | 64 nM | –
COc1cc(/C=C/c2cc(O)cc(OC)c2CC=C(C)C)ccc1NC=O [Compound 27, (E)-N-(4-(5-hydroxy-3-methoxy-2-(3-methylbut-2-en-1-yl)styryl)-2-methoxyphenyl)formamide] | – | 102 nM | 11.4 nM | 28.8 nM | 59.8 nM | 42.4 nM | 15.4 nM | 251 nM | 52.4 nM | 110 nM | 453 nM | 229 nM | 32.6 nM | 13.6 nM | 5.7 nM | 82.5 nM | 432 nM | 31.7 nM | 15.7 nM | 15.1 nM | IC50 (Rhabomyosarcoma TE 159.T; TE 159.T/CRL-7752, 11 dilutions 3-0.00001 μM, read-out: IC50): 31 nM
CCOc1cc(O)cc(/C=C/c2ccc(NC=O)c(OC)c2)c1CC=C(C)C [Compound 28, (E)-N-(4-(3-Ethoxy-5-hydroxy-2-(3-methylbut-2-en-1-yl)styryl)-2-methoxyphenyl)formamide] | – | 111 nM | 3.1 nM | 17.8 nM | 15.9 nM | 23.3 nM | 7.2 nM | 99.1 nM | 25.3 nM | 40.1 nM | 463 nM | 112 nM | 16.4 nM | 11.2 nM | 3 nM | 4.8 nM | 325 nM | 18 nM | 9.7 nM | 10.2 nM | Cancer cell viability inhibition, statement in words ([1]; SAR discussion based on IC50 values in Tables 1 to 5, compared with 1 [KYN-001]): much enhanced inhibition
